{
  "source": "patent US20240016875A1",
  "about": "“SHAN-ZHA FOR THE TREATMENT OF DEPRESSION AND ANXIETY DISORDERS” (THE OPEN UNIVERSITY, priority 2020, published 2024)",
  "key": {"[1]": {"system": "stressed mice", "assay": "Open field test (OFT), locomotor activity, Examples 1-3", "assay_type": "in vivo", "conditions": "UCMS-stressed male ICR mice; herbs and NHT 30 mg/kg, escitalopram 15 mg/kg i.p., 3 weeks", "description": "ICR outbred 28-30 days old male mice (Envigo, Israel) were maintained in the vivarium of the Open University lab in Hadassah Ein Karem medical cement, Jerusalem. Mice were group housed (5 mice per cage) and each cage contained mice from all treatment groups. Mice were given ad libitum access to food and water except during stressor application (with the exclusion of the light/dark cycle reversal). Mice kept on a reversed 12 h light/dark cycle (lights on 7:00 pm-7:00 am) while experimental procedures were performed during the dark phase under red light. All experiments were approved by the Open University of Israel committee for animal care and use. Methods were carried out in accordance with the NIH guidelines.\nCrataegus pinnatifida, Triticum aestivum, Lilium brownii and Fructus zizyphi jujuba were purchased as freeze-dried granules (KPC Products, Inc., Irvine, CA, USA). […]\nThe open field consists of an empty square arena (40×40×40 cm) and surrounded by Perspex opaque walls. Each mouse was placed in the center of the arena and video recorded for 5 min. […] Locomotor activity was expressed as the percentage of time that the mouse was moving in the arena in a velocity above 0.1 pixel/sec. […]"}, "[2]": {"system": "BDNF", "assay": "BDNF ELISA of hippocampus and PFC, stressed mice", "assay_type": "in vivo", "conditions": "UCMS-stressed mice; herbs and NHT 30 mg/kg, escitalopram 15 mg/kg i.p., 3 weeks; vs vehicle", "procedure": "Crataegus pinnatifida, Triticum aestivum, Lilium brownii and Fructus zizyphi jujuba were purchased as freeze-dried granules (KPC Products, Inc., Irvine, CA, USA). Each herb was dissolved in saline with 1% dimethylsulfoxide (DMSO) to a final concentration of 0.47 mg/ml and injected i.p. individually (30 mg/kg) or with the other components to form the formula (NHT, 30 mg/kg). […] Vehicle treatment included i.p. injection of saline with 1% DMSO. All treatments were carried out for 3 weeks.\nMice were decapitated, and their brains were placed on ice. Serial sections (1 mm wide) were cut onto slides, and tissue punches of the hippocampus and PFC (1.7 mm diameter) were taken. Tissue punches were homogenized in cold extraction buffer (Tris-buffered saline, pH 8.0, with 1% NP-40, 10% glycerol, 5 mM sodium metavanadate, 10 mM PMSF, 100 μg/ml aprotinin and 10 μg/ml leupeptin). Homogenates were acidified with 0.1 M HCl (pH 3.0), incubated at room temperature (22-24° C.) for 15 min, and neutralized (pH 7.6) with 0.1 M NaOH. Homogenates were then microfuged at 7000×g for 10 min. BDNF levels were quantified using sandwich ELISA (R&D systems, Minneapolis, MN, USA) according to the manufacturer's instructions."}, "[3]": {"system": "stressed mice", "assay": "Open Field Test (OFT), UCMS-stressed mice, Example 7", "assay_type": "in vivo", "conditions": "30 mg/kg (escitalopram 15 mg/kg) i.p., 3 weeks, vs vehicle", "description": "Animals. ICR outbred mice (Envigo RMS (Harlen), Israel) are kept in the vivarium of the Open University lab in Hadassah medical center, Jerusalem. Mice are kept on a reversed 12 h light/dark cycle and given ad libitum access to food and water. All experiments are performed during the dark phase under red light (7:00-19:00). All experiments have been approved by the committee for animal care and use according to the NIH guidelines. Drugs. Drugs are dissolved in saline and 1% DMSO to the desired concentration and administered i.p. Herbal mixture and Shan-zha (30 mg/kg) will be prepared by dissolving each component (KPC Products, Inc., CA, USA) to a final concentration of 0.47 mg/ml. […] Unpredictable chronic mild stress (UCMS). Mice are exposed to UCMS for 4 weeks at the age of 4 weeks as previously described. Open Field Test (OFT). This test reflects the conflict between the innate fear that mice have of the central area of the field versus their desire to explore new environments. When anxious, the natural tendency of mice is to prefer staying close to the walls. […] Anxiety-like behavior is expressed as the time the animal spent in the center area of the field (Walsh, R. N. and R. A. Cummins, Psychol Bull, 1976. 83(3): p. 482-504). Locomotor activity are expressed as the percentage of time that the mouse moved in the arena in a velocity above 0.1 pixel/sec."}, "[4]": {"system": "dams", "assay": "EPM in dams after restrain stress during gestation", "assay_type": "in vivo, mice", "conditions": "PND21, 15 mg/kg s.c. daily PND1-PND21", "description": "The EPM task was performed as previously described. Shortly, each mouse was placed in the center of the maze and video recorded for 5 min. Anxiety-like behavior was expressed as the time the mouse spent in the open, unprotected arms of the maze.\nFemale (n=40) and male (n=5) ICR outbred mice (100 days old; Envigo RMS, Jerusalem, Israel) were housed at 22±1° C. under 12 h light/dark cycles in the vivarium of the Open University lab in Hadassah medical center, Jerusalem. Mice had ad libitum access to rodent chow and water. Mice were housed in standard cages with a bed of woodchips and a piece of cotton wool for enrichment. All experiments were performed during the dark phase of the cycle. Male mice were used to father pups and were housed apart (5 per cage) from females until mating. […] Once a vaginal plug was identified, the females were transferred to a separate cage until parturition. Overall, 455 pups were delivered of which 317 (male: n=165; female: n=152) were designated for this study. Unassessed pups were maintained with littermates to avoid additional stress and ensure similar conditions. […]\nFollowing mating, dams were separated to individual cages and were observed periodically to ensure onset of pregnancy. […] Shortly after, anxiety-like behavior was assessed on the EPM and dams were assigned to treatment group (escitalopram/shan-zha/vehicle). […]"}, "[5]": {"system": "BDNF", "assay": "Hippocampal BDNF levels (ELISA), Example 7", "assay_type": "in vivo", "conditions": "stressed mice; 30 mg/kg (escitalopram 15 mg/kg) i.p., 3 weeks; vs vehicle", "procedure": "Assessment of brain BDNF levels. Tissues are homogenized in cold extraction buffer (Tris-buffered saline, pH 8.0, with 1% NP-40, 10% glycerol, 5 mM sodium metavanadate, 10 mM PMSF, 100 mg/ml aprotinin and 10 mg/ml leupeptin). Homogenates are acidified with 0.1 M HCl (pH 3.0), incubated at room temperature (22-24° C.) for 15 min, and neutralized with 0.1 M NaOH (pH 7.6). Homogenates are then microfuged at 7,000 g for 10 min. BDNF levels in the supernatant are evaluated using sandwich ELISA."}},
  "note": "“Also recorded” adds a separate entry of the source.",
  "data": [
    {"smiles": "CN(C)CCC[C@@]1(c2ccc(F)cc2)OCc2cc(C#N)ccc21", "note": "[escitalopram]", "values": [
      {"measurement": "locomotor activity in the OFT", "setting": "[1]", "value": "No change in locmotor activity"},
      {"measurement": "BDNF levels in the PFC", "setting": "[2]", "value": "elevations in BDNF levels in the PFC compared to vehicle-treated mice; also recorded: elevated BDNF levels in the PFC compared to vehicle"},
      {"measurement": "hippocampal BDNF levels", "setting": "[2]", "value": "elevations in hippocampal BDNF levels compared to vehicle-treated mice; also recorded: elevated hippocampal BDNF levels compared to vehicle"},
      {"measurement": "anxiety-like behavior in the OFT", "setting": "[3]", "value": "exhibited reduced anxiety-like behavior in the OFT compared to vehicle-treated stressed mice"},
      {"measurement": "anxiety-like behavior in the EPM, treated stressed dams vs saline-treated stressed dams", "setting": "[4]; restrain stress during gestation, 15 mg/kg", "value": "saline-treated stressed dams demonstrated elevated anxiety-like behavior compared to both shan-zha- and escitalopram-treated stressed dams; also recorded: the stress-vehicle group demonstrated increased anxiety-like behavior compared to the naïve-vehicle, stress-escitalopram and stress-shan-zha groups"},
      {"measurement": "effect of stress manipulation on time spent in open arms within treatment group, dams", "setting": "[4]; stressed vs naive dams", "value": "Stress manipulation did not affect time spent in open arms"},
      {"measurement": "hippocampal BDNF levels", "setting": "[5]", "value": "Significant elevations in hippocampal BDNF levels"}
    ]}
  ]
}
